Laboratory results published in ChEMBL document CHEMBL1133873, “Highly potent growth hormone secretagogues: hybrids of NN703 and ipamorelin” (Bioorg Med Chem Lett, 2001).
Where a SMILES comes first, the peptide text is derived from it. [ ]: non-standard residue; d: D form. d2Nal = N[C@H](Cc1ccc2ccccc2c1)C(=O)O; Aib = CC(C)(N)C(=O)O

Legend:
Rattus norvegicus [1] = organism: Rattus norvegicus; experiment: Concentration required for GH release from isolated pituitary cells of rat tested in vitro; format: functional, cell-based; details: Pituitary gland cell
Sus scrofa [2] = experiment: Release of growth hormone at single iv dose of 50 nmol/kg in pigs; format: functional
Rattus norvegicus [3] = organism: Rattus norvegicus; experiment: Efficacy was determined as percent of GHRP-6 in rat pituitary cell assay tested in vitro; format: functional; details: Pituitary gland cell
Sus scrofa [4] = experiment: Effective dose required for release of GH from pigs in vivo; format: functional

| Compound | EC50 (Rattus norvegicus [1]) [nM] | GHmax (Sus scrofa [2]) [ng/mL] | Emax (Rattus norvegicus [3]) [%] | ED50 (Sus scrofa [4]) [µmol/kg] |
| --- | --- | --- | --- | --- |
| CNC(=O)CCCN(C)C(=O)[C@H](Cc1ccccc1)N(C)C(=O)[C@H](Cc1ccc2ccccc2c1)N(C)C(=O)/C=C/CC(C)(C)N | 30 | 32 | 100 | – |
| CC(=O)NCCCCCNC(=O)[C@H](Cc1ccccc1)N(C)C(=O)[C@H](Cc1ccc2ccccc2c1)N(C)C(=O)/C=C/CC(C)(C)N | 10 | 26 | 110 | – |
| CCNC(=O)NCCCCCNC(=O)[C@H](Cc1ccccc1)N(C)C(=O)[C@H](Cc1ccc2ccccc2c1)N(C)C(=O)/C=C/CC(C)(C)N | 14 | 8 | 95 | – |
| CN(C(=O)/C=C/CC(C)(C)N)[C@@H](Cc1ccc2ccccc2c1)C(=O)N(C)[C@@H](Cc1ccccc1)C(=O)NCCCCCN=C(N)N | 17 | 49 | 140 | – |
| CN(C)C(=O)CCCN(C)C(=O)[C@H](Cc1ccccc1)N(C)C(=O)[C@H](Cc1ccc2ccccc2c1)N(C)C(=O)/C=C/CC(C)(C)N | 21 | 21 | 105 | – |
| CC(C)(N)C(=O)N[C@@H](Cc1c[nH]cn1)C(=O)N[C@H](Cc1ccc2ccccc2c1)C(=O)N[C@H](Cc1ccccc1)C(=O)N[C@@H](CCCCN)C(N)=O [IPAMORELIN] (H-[Aib]H[d2Nal][dF]K-NH2) | – | 54 | 85 | 0.0023 |
| CN(C)C(=O)CN(C)C(=O)[C@H](Cc1ccccc1)N(C)C(=O)[C@H](Cc1ccc2ccccc2c1)N(C)C(=O)/C=C/CC(C)(C)N | 10 | 48 | 105 | – |

The next lines start with results.

| EC50 (Rattus norvegicus [1]) [nM] | Compound | GHmax (Sus scrofa [2]) [ng/mL] | Emax (Rattus norvegicus [3]) [%] | ED50 (Sus scrofa [4]) [µmol/kg] |
| --- | --- | --- | --- | --- |
| 0.3 | CN(C)C(=O)[C@H](CCCCN)NC(=O)[C@H](Cc1ccccc1)N(C)C(=O)[C@H](Cc1ccc2ccccc2c1)N(C)C(=O)/C=C/CC(C)(C)N | 105 | 130 | – |
| 4 | CN(C)CCCN(C)C(=O)[C@H](Cc1ccccc1)N(C)C(=O)[C@H](Cc1ccc(-c2ccccc2)cc1)N(C)C(=O)/C=C/CC(C)(C)N | 50 | 95 | – |
| 6 | CN(C(=O)/C=C/CC(C)(C)N)[C@@H](Cc1ccc(-c2ccccc2)cc1)C(=O)N(C)[C@@H](Cc1ccccc1)C(=O)NCCCN | 25 | 130 | – |
| 2 | CN(C)CCCN(C)C(=O)[C@H](Cc1ccccc1)N(C)C(=O)[C@H](Cc1ccc2ccccc2c1)N(C)C(=O)/C=C/CC(C)(C)N | 45 | 105 | – |
| 0.15 | CN(C)C(=O)[C@H](CCCCN)NC(=O)[C@H](Cc1ccccc1)N(C)C(=O)[C@H](Cc1ccc(-c2ccccc2)cc1)N(C)C(=O)/C=C/CC(C)(C)N | 116 | 110 | – |
| 1 | CN(C(=O)/C=C/CC(C)(C)N)[C@@H](Cc1ccc(-c2ccccc2)cc1)C(=O)N(C)[C@@H](Cc1ccccc1)C(=O)NCCCCN | 91 | 110 | – |
| 5 | CN(C(=O)/C=C/CC(C)(C)N)[C@@H](Cc1ccc(-c2ccccc2)cc1)C(=O)N(C)[C@@H](Cc1ccccc1)C(=O)NCCN | 62 | 90 | – |
| 1.8 | CN(C(=O)/C=C/CC(C)(C)N)[C@@H](Cc1ccc2ccccc2c1)C(=O)N(C)[C@@H](Cc1ccccc1)C(=O)N[C@@H](CCCCN)C(N)=O | 76 | 105 | – |
| 1 | CN(C(=O)/C=C/CC(C)(C)N)[C@@H](Cc1ccc(-c2ccccc2)cc1)C(=O)N(C)[C@@H](Cc1ccccc1)C(=O)NCCCCCCN | 80 | 130 | – |
| 0.6 | CC(C)(N)C(=O)N[C@H](COCc1ccccc1)C(=O)N1CCC2(CC1)CN(S(C)(=O)=O)c1ccccc12 [IBUTAMOREN] | 60 | 115 | 0.084 |
